Patent publication US20060074049A1, “Use of heparinoids for treatment and prevention of dementia” (priority 2004, published 2006)

What was measured:
human NPC [1] = assay: Plating assay: NPC colony formation / quiescence; format: cell-based
Experimental: Cells and Materials: Normal human NPC were obtained from Clonetics Corp (San Diego, Calif.), and grown in neural progenitor maintenance medium (Clonetics) with human recombinant basic fibroblast growth factor, epidermal growth factor, neural survival factors and antibiotics. These cells were derived as described previously (Svendsen (1998) J. Neurosci. Meth. 85:141-152).
Plating Assay: On day 0, HIV coat proteins at a concentration of 800 pM, or CSF at a concentration of 2% was added to cultures of NPC. Each protein or CSF sample was tested in triplicate. Cultures were incubated for seven days, and then cells were plated onto 24 well polyethylene-imine coated plates. The number of cell colonies having more than 20 cells with typical neuronal morphology was counted for each well after 7 days in culture. Determinations of colony inhibition for all proteins and CSF samples were done on each of three different lots of NPC. Each lot was passaged 1-3 times before testing, with no differences seen between this number of passages.
The ability of HIV coat proteins to induce quiescence in human NPC was tested using NPC in the form of neurospheres. Typically, neurospheres with quiescent cells fail to attach and differentiate, while neurospheres containing proliferating cells will attach and differentiate into neurons and astrocytes. To determine whether only those coat proteins that signal through either the CXCR4 receptor or the […] receptor would induce quiescence of NPC, purified recombinant coat proteins from several different strains of HIV were tested. These included the R5 strain CM235, the X4 strain IIIb, and the clade E/A recombinant R5 strain 93TH975 (Gao et al. (1996) J. Virol. 70:1651-1667). […] The number of colonies containing more than 20 cells with typical neuronal morphology was counted after 7 days in culture. […] None of the coat proteins induced cell death in NPC, as determined by trypan blue staining (>95% viability in all coat-protein treated cultures). […]

human neurospheres (NPC) = assay: Block of IIIb coat protein effect on NPC proliferation by recombinant apolipoproteins; format: cell-based; conditions: 20 nM recombinant apolipoprotein
Experimental: FIG. 6 is a graph showing the number of BrdU labeled NPC in samples treated with recombinant HIV gp120 from the IIIb strain, which was pre-incubated with or without recombinant ApoE3 and ApoE4.
A risk factor for the development of HIV dementia is homozygosity for the apolipoprotein E4 genotype (Corder et al. (1998) Nat. Med. 4:1182-1184). In Herpes simplex virus infection, it has been speculated that apo E proteins compete with HSV for binding to HS, and that apo E4 cannot compete as efficiently as apo E3 (Itzhaki et al. (1998) Nat. Med. 4:1344). To determine whether apolipoproteins might compete with HIV coat proteins for binding to cell surface HS on NPC, human neurospheres were incubated with the IIIb coat protein, and the ability of recombinant apolipoproteins to block the inhibitory effect of the coat protein on NPC proliferation was tested. […] Thus, apolipoproteins compete with HIV coat proteins for cell surface binding.

p21 and p27 = p21 and p27 expression in NPC by immunohistochemistry; format: cell-based, human
Experimental: For p21 and p27 detection, NPC were grown with recombinant coat proteins for 24 hours. Cells were fixed and monoclonal antibodies to p21 or p27 (Pharmingen) were added. A secondary antibody conjugated to Cy3 was used for detection.
NCP were incubated with 800 pM recombinant coat proteins, and expression of p21 and p27 was analyzed using immunohistochemistry.

ERK = ERK phosphorylation in NPC by flow cytometry; format: cell-based, human
Experimental: Signaling: Isolated NPC were incubated with coat proteins for 10 minutes, placed on ice, fixed, permeabilized with saponin, and stained with fluorescein isothiocyanate-(FITC-) conjugated phosphospecific monoclonal antibodies to ERK (Santa Cruz Biotechnology, Santa Cruz, Calif.). Cells were then analyzed by flow cytometry. Activity of PP2A was inhibited by incubation with okadaic acid (Calbiochem, San Diego, Calif.) at 2.5 μM for 1 hour prior to the addition of coat proteins. Experiments were performed at least twice, and determinations were performed in triplicate.
Proliferation of NPC is increased by signals that increase ERK phosphorylation (Learish et al. (2000) Develop. Brain Res. 122:97-109). […] NPC were incubated with a panel of HIV coat proteins and assayed to determine the fraction of cells with phosphorylated ERK. The CM235 and IIIb coat proteins inhibited ERK phosphorylation by 34% and 77% respectively (p<0.05 for both; FIGS. 2A and 2B). […] Thus, HIV coat proteins are able to activate a cellular phosphatase by signaling through chemokine receptors and reduce ERK phosphorylation, leading to reduced NPC proliferation.

[2] = tested on: NPC in human hippocampal slices; assay: Hippocampal slice cultures, BrdU positive NPC; format: cell-based; conditions: coat protein 1 nM; p<0.001
Experimental: Hippocampal slice cultures: Discarded hippocampal tissue was obtained from patients undergoing corrective surgery for seizures as previously described (Roy et al. (2000) Nat. Med. 6:271-277; and Pincus et al. (1998) Neurosurg. 42:858-868). Tissue was obtained within 1 hour of removal and cultured as described (Stoppini et al. (1991) J. Neurosci, Meth. 37:173-182). Briefly, tissue was sliced to 200 μm thickness using a Brendel-Vitron tissue slicer (Vitron, Inc., Tucson, Ariz.). Slices were placed in a Transwell insert (Costar, Corning, N.Y.) and cultured in neural progenitor maintenance medium (NPMM) with or without chemokines (500 ng/ml), HIV coat proteins (1 nM) or CSF (2%) added on day 0. Each sample was tested in triplicate. The entire experiment was performed at least twice with identical results. Slices were labeled with BrdU on day 5 of culture, and harvested for immunohistochemistry on day 7 by freezing slices in OCT. Five-micron sections were made, and BrdU incorporation was detected using a BrdU in situ kit (Pharmingen, San Diego, Calif.). For dual staining of BrdU and Musashil, a polyclonal antibody to Musashil (Chemicon International, Temecula, Calif.) was used at a dilution of 1:10. Apoptotic cells were detected using a TUNEL assay (Oncogene, Boston, Mass.). […]

human NPC [3] = assay: BrdU incorporation into NPC neurospheres by flow cytometry; format: cell-based
From the text: FIG. 1 is a graph showing the number of NPC colonies displaying outgrowth of cells with neuronal morphology after treatment with coat proteins from the HIV strains 93TH975, CM235 and IIIb. The mean+/−standard error is shown. PTX=pertussis toxin, Anti V3=monoclonal antibody to the V3 loop region of gp120. FIG. 1B is a series of graphs showing the level of bromodeoxyuridine (BrdU) incorporation into NPC neurospheres treated with coat proteins from the HIV strains 93TH975, CM235 and IIIb. Shaded area=control cells, solid line=treated cells.
To quantitate the ability of the coat proteins to cause cells to become quiescent, the number of attached, differentiated colonies was counted. […] In contrast, the 93TH975 coat protein had no effect. In order to confirm that cell proliferation was indeed inhibited by the coat proteins, cultures of NPC were labeled with BrdU, and BrdU incorporation was measured by flow cytometry.

**Q.** For pertussis toxin [reference compound], which “effect on the inhibitory effects of CM235 and IIIb coat proteins on NPC” value (human NPC [1]; added to NPC cultures in addition to coat proteins) is on record?
**A.** The value was “eliminated”.

**Q.** With apo E4: recombinant apolipoprotein E4 as the compound, how does the “block of IIIb coat protein inhibition of NPC proliferation” value (human neurospheres (NPC)) read?
**A.** Its value is “did not”.

**Q.** With `c1cc(CN2CCCNCCNCCCNCC2)ccc1CN1CCCNCCNCCCNCC1` [AMD3100, reference compound] as the compound, how does the “effect on induction of p21 and p27 by the IIIb coat protein” value (p21 and p27; with IIIb coat protein) read?
**A.** The value was “blocked”.

**Q.** Which “effect on inhibition of ERK phosphorylation induced by CM235 and IIIb coat proteins” value (ERK; 2.5 μM for 1 hour prior to coat proteins) does the source give for `C=C1[C@@H](O)[C@@H]2O[C@]3(CC[C@H](/C=C/[C@@H](C)[C@@H]4CC(C)=C[C@@]5(O[C@H](C[C@@](C)(O)C(=O)O)CC[C@H]5O)O4)O3)CC[C@H]2O[C@@H]1[C@@H](O)C[C@H](C)[C@H]1O[C@@]2(CCCCO2)CC[C@H]1C` [okadaic acid, reference compound] here?
**A.** Its value is “blocked the inhibition of ERK phosphorylation”.

**Q.** How did the “block of IIIb coat protein inhibition of NPC proliferation” value (human neurospheres (NPC)) turn out when apo E3: recombinant apolipoprotein E3 was run?
**A.** The value was “prevented the IIIb coat protein from inhibiting NPC proliferation”.

**Q.** Which results are given for “IIIb: purified recombinant HIV coat protein (gp120) of the X4 strain IIIb”?
**A.** reduction of proliferation of NPC (BrdU positive cells) in hippocampal slices [2]: 70%; BrdU incorporation into NPC, tested 7 days after addition of coat proteins (human NPC [3]; 7 days after addition): incorporation similar to controls; BrdU incorporation into NPC compared with controls (human NPC [3]; coat protein treated NPC): less BrdU incorporation; expression of p21 and p27 in NPC (p21 and p27; 800 pM recombinant coat protein): induced expression of p21 and p27; reduction in fraction of NPC with phosphorylated ERK (ERK; NPC incubated with coat protein 10 minutes, p<0.05 for CM235 and IIIb, 93TH975 non-significant): 77%; induction of quiescence / effect on attached differentiated NPC colonies (in words) (human NPC [1]; coat protein 800 pM for 7 days): caused NPC to enter a quiescent state; reduction of the number of differentiated NPC colonies (human NPC [1]; coat protein 800 pM for 7 days, colonies counted after 7 days on coated plates, p<0.001): 74%
